pIC50: −log10 of the molar value.
Tests used:
Cholinesterase = Cholinesterase (Equus caballus, UniProt P81908); assay: Inhibition of equine serum BuChE using BTCI as substrate preincubated for 30 mins followed by substrate addition measured after 30 mins by Ellman assay
in vitro [1] = conditions: human, SH-SY5Y cells
Description: Cytotoxicity against human SH-SY5Y cells assessed as cell viability at 40 uM after 24 hrs by MTT assay

in vitro [2] = conditions: human, SH-SY5Y cells; remark: listed apart in the source
Description: Cytotoxicity against human SH-SY5Y cells assessed as cell viability at 80 uM after 24 hrs by MTT assay

Acetylcholinesterase [3] = biological target: T1, Acetylcholinesterase (Homo sapiens, UniProt P22303); assay: Inhibition of human erythrocyte AChE using ATCI as substrate preincubated for 30 mins followed by substrate addition measured after 30 mins by Ellman assay
[4] = Permeability of the compound at 100 ug/ml incubated for 120 mins by PAMPA; assay type: ADME; conditions: read-out: Peff
Acetylcholinesterase [5] = biological target: T1, Acetylcholinesterase; conditions: at 10 µM
Description: Inhibition of human erythrocyte AChE-induced Abeta (1 to 42) aggregation at 10 uM incubated for 24 hrs by thioflavin-T fluorescence assay

T1 sequence (P22303 whole entry): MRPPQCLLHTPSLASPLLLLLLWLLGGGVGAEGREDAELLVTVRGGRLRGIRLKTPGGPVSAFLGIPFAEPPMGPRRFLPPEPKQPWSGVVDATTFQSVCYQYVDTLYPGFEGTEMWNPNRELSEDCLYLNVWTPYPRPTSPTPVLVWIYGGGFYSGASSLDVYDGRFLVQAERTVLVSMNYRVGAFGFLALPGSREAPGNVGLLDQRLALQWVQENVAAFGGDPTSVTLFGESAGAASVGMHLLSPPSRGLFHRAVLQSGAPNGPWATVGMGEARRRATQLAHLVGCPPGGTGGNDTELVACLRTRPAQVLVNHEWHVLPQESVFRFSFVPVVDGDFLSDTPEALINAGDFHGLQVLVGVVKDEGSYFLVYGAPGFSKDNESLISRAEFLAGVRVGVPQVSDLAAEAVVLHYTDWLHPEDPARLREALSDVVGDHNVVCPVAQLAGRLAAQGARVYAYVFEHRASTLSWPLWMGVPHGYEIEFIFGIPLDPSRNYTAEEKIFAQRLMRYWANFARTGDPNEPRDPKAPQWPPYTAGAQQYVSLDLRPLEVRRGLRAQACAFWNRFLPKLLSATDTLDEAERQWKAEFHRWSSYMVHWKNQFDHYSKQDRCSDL
Cholinesterase, sequence (P81908 whole entry): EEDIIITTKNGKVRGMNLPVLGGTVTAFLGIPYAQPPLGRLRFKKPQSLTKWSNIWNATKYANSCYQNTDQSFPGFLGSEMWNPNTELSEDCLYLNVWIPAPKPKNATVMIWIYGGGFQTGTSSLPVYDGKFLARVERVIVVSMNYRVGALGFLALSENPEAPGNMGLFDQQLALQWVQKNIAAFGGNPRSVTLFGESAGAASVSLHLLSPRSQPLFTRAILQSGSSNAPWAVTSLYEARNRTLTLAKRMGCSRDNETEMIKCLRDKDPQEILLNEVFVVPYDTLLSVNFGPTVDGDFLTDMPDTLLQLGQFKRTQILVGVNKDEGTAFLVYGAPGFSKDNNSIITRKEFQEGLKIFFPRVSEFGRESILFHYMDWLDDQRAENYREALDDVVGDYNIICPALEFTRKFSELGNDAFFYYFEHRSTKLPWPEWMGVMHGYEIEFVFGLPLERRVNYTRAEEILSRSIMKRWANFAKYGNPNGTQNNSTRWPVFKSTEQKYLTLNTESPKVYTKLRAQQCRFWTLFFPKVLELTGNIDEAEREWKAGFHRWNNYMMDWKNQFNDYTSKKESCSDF

Compound	pIC50 (Cholinesterase)	viability at 24 h, 40 µM (in vitro [1]) [%]	viability at 24 h, 80 µM (in vitro [2]) [%]	pIC50 (Acetylcholinesterase [3])	Papp at 2 h, 100 ug/ml [4] [×10⁻⁶ cm/s]	inhibition (Acetylcholinesterase [5]) [%]
COc1ccc(-c2nc(NC(=O)C3CCN(Cc4cccc(F)c4)CC3)sc2-c2ccc(OC)cc2)cc1	5.81	94	90.3	6.24	12.5	21.2
Fc1ccc(CN2CCC(Nc3nc(-c4ccc(Cl)cc4)c(-c4ccc(Cl)cc4)s3)CC2)c(Cl)c1	5.71	94.2	92.5	6.43	8.4	27.5
Cc1ccc(-c2nc(NCC3CCN(Cc4ccccc4C(F)(F)F)CC3)sc2-c2ccc(C)cc2)cc1	5.66	93.5	91.7	6.40	12.8	26.4
COc1ccc(-c2nc(NCC3CCN(Cc4ccccc4C(F)(F)F)CC3)sc2-c2ccc(OC)cc2)cc1	5.10	94.2	90.1	6.16	8.4	20.6
COc1ccc(-c2nc(NC3CCN(Cc4ccc(C)cc4)CC3)sc2-c2ccc(OC)cc2)cc1	5.65	95.4	89.5	6.08	9.6	19.2
Fc1cc(F)cc(CN2CCC(CNc3nc(-c4ccc(Cl)cc4)c(-c4ccc(Cl)cc4)s3)CC2)c1	6.09	92.4	91.7	6.20	12.5	19.4
O=C(Nc1nc(-c2ccc(Cl)cc2)c(-c2ccc(Cl)cc2)s1)C1CCN(Cc2cc(F)cc(F)c2)CC1	5.52	95.6	92.8	6.19	8.8	12
COc1ccc(-c2nc(NC3CCN(Cc4ccc(C(F)(F)F)cc4)CC3)sc2-c2ccc(OC)cc2)cc1	5.77	94.5	90.4	6.12	8.6	18.9
Cc1ccc(-c2nc(NCC3CCN(Cc4ccc(F)cc4)CC3)sc2-c2ccc(C)cc2)cc1	5.71	91.8	89.7	6.43	10.1	25.8
Fc1ccc(CN2CCC(CNc3nc(-c4ccc(Cl)cc4)c(-c4ccc(Cl)cc4)s3)CC2)c(Cl)c1	6.13	92.7	88.9	6.28	13.2	15

Source: ChEMBL document CHEMBL4477206, “Benzylpiperidine-Linked Diarylthiazoles as Potential Anti-Alzheimer's Agents: Synthesis and Biological Evaluation” (J Med Chem, 2016)
